Assay results as given in publication PMC7853165 (Infectious Diseases and Therapy, 2021).
Where two headings read alike, the source gives them in different places.

Key:
[1] = target: T1, angiotensin-converting enzyme 2 (ACE2) (Homo sapiens, UniProt Q9BYF1); assay: SPR; assay type: binding
[2] = target: T1, angiotensin-converting enzyme 2 (ACE2); assay: SPR; assay type: binding; remark: listed apart in the source

T1 sequence (Q9BYF1 18-805): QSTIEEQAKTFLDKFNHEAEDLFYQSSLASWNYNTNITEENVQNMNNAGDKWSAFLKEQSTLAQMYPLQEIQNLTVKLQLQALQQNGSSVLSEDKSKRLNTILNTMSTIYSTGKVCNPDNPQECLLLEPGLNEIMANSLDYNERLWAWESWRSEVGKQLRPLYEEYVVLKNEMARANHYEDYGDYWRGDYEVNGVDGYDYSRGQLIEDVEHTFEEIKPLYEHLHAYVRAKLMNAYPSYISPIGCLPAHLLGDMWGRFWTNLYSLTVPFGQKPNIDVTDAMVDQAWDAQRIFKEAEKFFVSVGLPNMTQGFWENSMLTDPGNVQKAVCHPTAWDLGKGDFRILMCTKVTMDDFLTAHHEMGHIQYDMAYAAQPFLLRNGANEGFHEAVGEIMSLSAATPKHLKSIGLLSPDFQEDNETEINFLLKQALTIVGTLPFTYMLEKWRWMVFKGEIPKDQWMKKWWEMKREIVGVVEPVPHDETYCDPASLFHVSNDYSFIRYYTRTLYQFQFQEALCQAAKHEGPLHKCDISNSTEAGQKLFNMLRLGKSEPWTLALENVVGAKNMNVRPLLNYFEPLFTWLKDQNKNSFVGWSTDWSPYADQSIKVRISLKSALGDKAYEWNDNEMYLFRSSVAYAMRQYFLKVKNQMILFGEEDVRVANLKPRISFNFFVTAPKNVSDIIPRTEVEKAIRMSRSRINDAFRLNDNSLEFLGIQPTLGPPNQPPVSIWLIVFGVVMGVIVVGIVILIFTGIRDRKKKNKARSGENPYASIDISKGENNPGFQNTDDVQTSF

Row | Kd [2] [µM] | SMILES | Kd [1] [µM]
1 |  | CC1=CC(=O)C(C(C)C)=CC1=O [thymoquinone] | 32.1
2 | 66 | CC(C)C[C@H](N[C@@H](Cc1cncn1Cc1cc(Cl)cc(Cl)c1)C(=O)O)C(=O)O [MLN-4760] | 
